Data: ChEMBL document CHEMBL1133277, “Effect of C2/C3-endo unsaturation on the cytotoxicity and DNA-binding reactivity of pyrrolo[2,1-c][1,4]benzodiazepines” (2000)

test system: SK-OV-3; experiment: In vitro cytotoxicity of compound was determined against SKOV-3 cell lines at 37 degree C after 96 hr; assay type: functional, Homo sapiens; details: not given

Point of comparison: `COc1cc2c(cc1OCc1ccccc1)N=C[C@@H]1CCCN1C2=O`, Cytotoxicity 0.46 µM. Against it:
- COC(=O)CC1=CN2C(=O)c3cc(OC)c(OC)cc3N=C[C@@H]2C1 — within 1.5-fold, 0.45 µM
- COc1cc2c(cc1OCc1ccccc1)N=C[C@@H]1CC(CC#N)=CN1C2=O — within 1.5-fold, 0.52 µM
- COc1cc2c(cc1OCc1ccccc1)N=C[C@@H]1CC(CCO)=CN1C2=O — 4.4-fold lower, 0.105 µM
- COc1cc2c(cc1OCc1ccccc1)N=C[C@@H]1CC(CCOC(C)=O)=CN1C2=O — the same, 0.46 µM
- COC(=O)CC1=CN2C(=O)c3cc(OC)c(OCc4ccccc4)cc3N=C[C@@H]2C1 — 3.8-fold lower, 0.12 µM
- Cc1ccc2c(c1O)N=C[C@@H]1CC(/C=C/C(N)=O)=CN1C2=O — 2.9-fold lower, 0.16 µM

test system: Nucleic Acid; experiment: Change in temperature (thermal denaturation) was determined from calf thymus DNA at 37 degree Celsius for 18 hours; assay type: functional; details: Bos taurus

Point of comparison: `COc1cc2c(cc1OCc1ccccc1)N=C[C@@H]1CC(CCO)=CN1C2=O`, ΔTm 5.6 °C. Against it:
- COc1cc2c(cc1OCc1ccccc1)N=C[C@@H]1CC(CC#N)=CN1C2=O — lower, 4.31 °C
- COc1cc2c(cc1OCc1ccccc1)N=C[C@@H]1CC(CCOC(C)=O)=CN1C2=O — lower, 2.53 °C
- COc1cc2c(cc1OCc1ccccc1)N=C[C@@H]1CCCN1C2=O — lower, 0.4 °C
- Cc1ccc2c(c1O)N=C[C@@H]1CC(/C=C/C(N)=O)=CN1C2=O — higher, 13 °C

test system: CH1; experiment: In vitro cytotoxicity of compound was determined against CH1 (cisplatin resistant) cell lines at 37 degree C after 96 hr; assay type: functional, Homo sapiens; details: not given

Point of comparison: `COc1cc2c(cc1OCc1ccccc1)N=C[C@@H]1CC(CC#N)=CN1C2=O`, Cytotoxicity 0.27 µM. Against it:
- COC(=O)CC1=CN2C(=O)c3cc(OC)c(OC)cc3N=C[C@@H]2C1 — 1.8-fold lower, 0.15 µM
- COc1cc2c(cc1OCc1ccccc1)N=C[C@@H]1CC(CCO)=CN1C2=O — 7.3-fold lower, 0.037 µM
- COc1cc2c(cc1OCc1ccccc1)N=C[C@@H]1CC(CCOC(C)=O)=CN1C2=O — 1.7-fold lower, 0.16 µM
- COC(=O)CC1=CN2C(=O)c3cc(OC)c(OCc4ccccc4)cc3N=C[C@@H]2C1 — 6.8-fold lower, 0.04 µM
- COc1cc2c(cc1OCc1ccccc1)N=C[C@@H]1CCCN1C2=O — 1.9-fold lower, 0.145 µM
- Cc1ccc2c(c1O)N=C[C@@H]1CC(/C=C/C(N)=O)=CN1C2=O — 5.4-fold lower, 0.05 µM

test system: CH1; experiment: In vitro cytotoxicity of compound was determined against CH1 cell lines at 37 degree C after 96 hr; assay type: functional, Homo sapiens; details: not given

Point of comparison: `COc1cc2c(cc1OCc1ccccc1)N=C[C@@H]1CC(CC#N)=CN1C2=O`, Cytotoxicity 0.105 µM. Against it:
- COC(=O)CC1=CN2C(=O)c3cc(OC)c(OC)cc3N=C[C@@H]2C1 — within 1.5-fold, 0.115 µM
- COc1cc2c(cc1OCc1ccccc1)N=C[C@@H]1CC(CCO)=CN1C2=O — within 1.5-fold, 0.09 µM
- COc1cc2c(cc1OCc1ccccc1)N=C[C@@H]1CC(CCOC(C)=O)=CN1C2=O — the same, 0.105 µM
- COC(=O)CC1=CN2C(=O)c3cc(OC)c(OCc4ccccc4)cc3N=C[C@@H]2C1 — 6.6-fold lower, 0.016 µM
- COc1cc2c(cc1OCc1ccccc1)N=C[C@@H]1CCCN1C2=O — within 1.5-fold, 0.145 µM
- Cc1ccc2c(c1O)N=C[C@@H]1CC(/C=C/C(N)=O)=CN1C2=O — 1.7-fold lower, 0.062 µM

test system: Nucleic Acid; experiment: Change in temperature (thermal denaturation) was determined from calf thymus DNA at 37 degree Celsius for 36 hours; assay type: functional; details: Bos taurus

Point of comparison: `COC(=O)CC1=CN2C(=O)c3cc(OC)c(OC)cc3N=C[C@@H]2C1`, ΔTm 6.65 °C. Against it:
- COC(=O)CC1=CN2C(=O)c3cc(OC)c(OCc4ccccc4)cc3N=C[C@@H]2C1 — lower, 4.97 °C

test system: A2780; experiment: In vitro cytotoxicity of compound was determined against A2780 cell lines at 37 degree C after 96 hr; assay type: functional, Homo sapiens; details: not given

Point of comparison: `Cc1ccc2c(c1O)N=C[C@@H]1CC(/C=C/C(N)=O)=CN1C2=O`, Cytotoxicity 0.155 µM. Against it:
- COC(=O)CC1=CN2C(=O)c3cc(OC)c(OC)cc3N=C[C@@H]2C1 — 2.3-fold higher, 0.36 µM
- COc1cc2c(cc1OCc1ccccc1)N=C[C@@H]1CC(CC#N)=CN1C2=O — the same, 0.155 µM
- COc1cc2c(cc1OCc1ccccc1)N=C[C@@H]1CC(CCO)=CN1C2=O — 2.2-fold lower, 0.07 µM
- COc1cc2c(cc1OCc1ccccc1)N=C[C@@H]1CC(CCOC(C)=O)=CN1C2=O — 1.5-fold lower, 0.1 µM
- COC(=O)CC1=CN2C(=O)c3cc(OC)c(OCc4ccccc4)cc3N=C[C@@H]2C1 — 11-fold lower, 0.0145 µM
- COc1cc2c(cc1OCc1ccccc1)N=C[C@@H]1CCCN1C2=O — within 1.5-fold, 0.17 µM

test system: Nucleic Acid; experiment: Change in temperature (thermal denaturation) was determined from calf thymus DNA at 37 degree Celsius for 4 hours; assay type: functional; details: Bos taurus

Point of comparison: `COC(=O)CC1=CN2C(=O)c3cc(OC)c(OC)cc3N=C[C@@H]2C1`, ΔTm 4.63 °C. Against it:
- COc1cc2c(cc1OCc1ccccc1)N=C[C@@H]1CC(CC#N)=CN1C2=O — lower, 2.31 °C
- COc1cc2c(cc1OCc1ccccc1)N=C[C@@H]1CC(CCO)=CN1C2=O — lower, 4.61 °C
- COc1cc2c(cc1OCc1ccccc1)N=C[C@@H]1CC(CCOC(C)=O)=CN1C2=O — lower, 2.11 °C
- COC(=O)CC1=CN2C(=O)c3cc(OC)c(OCc4ccccc4)cc3N=C[C@@H]2C1 — lower, 3.96 °C
- COc1cc2c(cc1OCc1ccccc1)N=C[C@@H]1CCCN1C2=O — lower, 0.4 °C
- Cc1ccc2c(c1O)N=C[C@@H]1CC(/C=C/C(N)=O)=CN1C2=O — higher, 11.2 °C

test system: A2780; experiment: In vitro cytotoxicity of compound was determined against A2780 cell lines (cisplatin resistant) at 37 degree C after 96 hr; assay type: functional, Homo sapiens; details: not given

Point of comparison: `COC(=O)CC1=CN2C(=O)c3cc(OC)c(OCc4ccccc4)cc3N=C[C@@H]2C1`, Cytotoxicity 0.12 µM. Against it:
- COC(=O)CC1=CN2C(=O)c3cc(OC)c(OC)cc3N=C[C@@H]2C1 — 3.8-fold higher, 0.46 µM
- COc1cc2c(cc1OCc1ccccc1)N=C[C@@H]1CC(CC#N)=CN1C2=O — 3.6-fold higher, 0.43 µM
- COc1cc2c(cc1OCc1ccccc1)N=C[C@@H]1CC(CCO)=CN1C2=O — within 1.5-fold, 0.105 µM
- COc1cc2c(cc1OCc1ccccc1)N=C[C@@H]1CC(CCOC(C)=O)=CN1C2=O — 2.3-fold higher, 0.27 µM
- COc1cc2c(cc1OCc1ccccc1)N=C[C@@H]1CCCN1C2=O — 4-fold higher, 0.48 µM
- Cc1ccc2c(c1O)N=C[C@@H]1CC(/C=C/C(N)=O)=CN1C2=O — within 1.5-fold, 0.16 µM

test system: not listed separately; experiment: Resistance factor of compound was determined from cisplatin resistant CH1 cell lines to that of CH1 cell lines; assay type: functional; details: not given

Point of comparison: `COc1cc2c(cc1OCc1ccccc1)N=C[C@@H]1CC(CC#N)=CN1C2=O`, Resistance factor 2.6. Against it:
- COC(=O)CC1=CN2C(=O)c3cc(OC)c(OC)cc3N=C[C@@H]2C1 — lower, 1.3
- COc1cc2c(cc1OCc1ccccc1)N=C[C@@H]1CC(CCO)=CN1C2=O — lower, 0.4
- COc1cc2c(cc1OCc1ccccc1)N=C[C@@H]1CC(CCOC(C)=O)=CN1C2=O — lower, 1.5
- COC(=O)CC1=CN2C(=O)c3cc(OC)c(OCc4ccccc4)cc3N=C[C@@H]2C1 — lower, 2.5
- COc1cc2c(cc1OCc1ccccc1)N=C[C@@H]1CCCN1C2=O — lower, 1
- Cc1ccc2c(c1O)N=C[C@@H]1CC(/C=C/C(N)=O)=CN1C2=O — lower, 0.81

test system: Nucleic Acid; experiment: Change in temperature (thermal denaturation) was determined from calf thymus DNA at 37 degree Celsius for 0 hours; assay type: functional; details: Bos taurus

Point of comparison: `COc1cc2c(cc1OCc1ccccc1)N=C[C@@H]1CC(CCO)=CN1C2=O`, ΔTm 3.98 °C. Against it:
- COC(=O)CC1=CN2C(=O)c3cc(OC)c(OC)cc3N=C[C@@H]2C1 — lower, 3.41 °C
- COc1cc2c(cc1OCc1ccccc1)N=C[C@@H]1CC(CC#N)=CN1C2=O — lower, 1.84 °C
- COc1cc2c(cc1OCc1ccccc1)N=C[C@@H]1CC(CCOC(C)=O)=CN1C2=O — lower, 1.57 °C
- COC(=O)CC1=CN2C(=O)c3cc(OC)c(OCc4ccccc4)cc3N=C[C@@H]2C1 — lower, 3.08 °C
- COc1cc2c(cc1OCc1ccccc1)N=C[C@@H]1CCCN1C2=O — lower, 0.2 °C
- Cc1ccc2c(c1O)N=C[C@@H]1CC(/C=C/C(N)=O)=CN1C2=O — higher, 9.4 °C

test system: not listed separately; experiment: Resistance factor of compound was determined from cisplatin resistant A2780 cell lines to that of A2780 cell lines; assay type: functional; details: not given

Point of comparison: `COc1cc2c(cc1OCc1ccccc1)N=C[C@@H]1CCCN1C2=O`, Resistance factor 2.8. Against it:
- COC(=O)CC1=CN2C(=O)c3cc(OC)c(OC)cc3N=C[C@@H]2C1 — lower, 1.3
- COc1cc2c(cc1OCc1ccccc1)N=C[C@@H]1CC(CC#N)=CN1C2=O — the same, 2.8
- COc1cc2c(cc1OCc1ccccc1)N=C[C@@H]1CC(CCO)=CN1C2=O — lower, 1.5
- COc1cc2c(cc1OCc1ccccc1)N=C[C@@H]1CC(CCOC(C)=O)=CN1C2=O — lower, 2.7
- COC(=O)CC1=CN2C(=O)c3cc(OC)c(OCc4ccccc4)cc3N=C[C@@H]2C1 — higher, 8.3
- Cc1ccc2c(c1O)N=C[C@@H]1CC(/C=C/C(N)=O)=CN1C2=O — lower, 1.03
